Experimental data reported in ChEMBL document CHEMBL1201862, “PubChem BioAssay data set” (2004).
Values joined by “and” are separate entries in the source; they are usually repeats but may differ in a detail not shown here. Equal values may be shown once. Active and inactive are the calls of the source.

Key:
[1] = growth suppression of beta-catenin-knockout colon cells, dose response, cell-based, HCT116, human colon tumor (AID 1045); format: functional;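 also: HCT116 colon tumor cells with beta catenin knocked out; cells exposed to compound for 60 hours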
[2] = growth suppression of PTEN-null colon cells, dose response, cell-based, HCT116 PTEN knockout (AID 1047); format: functional;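 also: HCT116 colon tumor cells with PTEN knocked out; cells exposed to compound for 60 hours before readout; potency for loss of cell viability measured by luminescence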
[3] = molecular target: T1, Corticotropin-releasing factor receptor 2/Corticotropin-releasing factor-binding protein (Homo sapiens, UniProt P24387+Q13324); assay: Dose Response confirmation of uHTS hits for small molecule antagonists of the CRF-binding protein and CRF-R2 receptor complex.; format: functional; conditions: read-out: IC50_Mean
T1 sequence (Q13324 whole entry): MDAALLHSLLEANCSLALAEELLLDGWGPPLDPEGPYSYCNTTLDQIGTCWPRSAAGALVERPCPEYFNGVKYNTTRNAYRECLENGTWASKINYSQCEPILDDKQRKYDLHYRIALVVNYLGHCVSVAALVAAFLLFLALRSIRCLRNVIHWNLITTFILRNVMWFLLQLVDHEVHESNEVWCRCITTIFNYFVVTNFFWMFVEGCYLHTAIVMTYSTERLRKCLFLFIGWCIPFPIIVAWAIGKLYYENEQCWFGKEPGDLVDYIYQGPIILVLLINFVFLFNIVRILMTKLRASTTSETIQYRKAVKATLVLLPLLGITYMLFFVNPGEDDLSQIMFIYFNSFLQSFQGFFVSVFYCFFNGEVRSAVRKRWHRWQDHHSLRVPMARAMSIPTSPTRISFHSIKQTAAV
T1 sequence (P24387 whole entry): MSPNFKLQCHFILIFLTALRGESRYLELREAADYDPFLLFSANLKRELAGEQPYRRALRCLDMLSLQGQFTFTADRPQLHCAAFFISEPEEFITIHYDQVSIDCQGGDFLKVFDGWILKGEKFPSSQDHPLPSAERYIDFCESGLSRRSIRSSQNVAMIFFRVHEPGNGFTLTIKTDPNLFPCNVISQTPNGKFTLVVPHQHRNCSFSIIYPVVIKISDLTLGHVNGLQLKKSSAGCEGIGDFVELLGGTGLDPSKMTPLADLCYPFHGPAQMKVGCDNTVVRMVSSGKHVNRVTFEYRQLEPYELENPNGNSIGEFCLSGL

[4] = molecular target: T1, Corticotropin-releasing factor receptor 2/Corticotropin-releasing factor-binding protein; assay: activators of CRF receptor 2 with binding protein – uHTS hits, confirmation (AID 602473); format: functional; conditions: read-out: EC50_Mean
[5] = cytotoxicity toward NIH3T3 fibroblasts, dose response, counter-screen, cell-based, ATP luminescence, mouse fibroblasts (AID 2010); format: functional;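 also: cells exposed to compound for about 90 hours before reading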
[6] = tested on: INS1; assay: beta cell apoptosis inhibitors, cytokine rescue, dose response, luminescence, retest (AID 449756); format: functional, cell-based; conditions: Rattus norvegicus;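 also: cell death triggered by IL-1 beta plus TNF-alpha plus IFN-gamma mixture; protective hits raise ATP signal compared with cytokine alone wells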
[7] = inhibitors of intracellular T. cruzi replication, confirmation, NIH3T3 host cells, beta-gal luminescence (AID 2044); format: functional, cell-based;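 also: intracellular parasites grown in NIH/3T3 mouse fibroblasts as host cells; luminescent beta-galactosidase reporter signal from transgenic T. cruzi replicating inside host cells; inhibitors lower the luminescence signal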
[8] = C. albicans growth with fluconazole, confirmation, fluorescence, retest (AID 2467); format: functional, cell-based
[9] = NIH-3T3 fibroblast cytotoxicity, dose response, cytotoxicity control, cell-based, fluorescence, Alamar Blue, secondary assay (AID 2327); format: functional;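 also: NIH-3T3 mouse fibroblasts cultured with fluconazole at 8 µg/mL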
[10] = molecular target: Cytochrome P450 3A4 (Homo sapiens, UniProt P08684);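 also: CYP3A4 tested as one member of a cytochrome P450 panel screen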
[11] = molecular target: T2, Cytochrome P450 1A2 (Homo sapiens, UniProt P05177);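 also: PubChem cytochrome P450 panel assay, CYP1A2 panel member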
T2 sequence (P05177 whole entry): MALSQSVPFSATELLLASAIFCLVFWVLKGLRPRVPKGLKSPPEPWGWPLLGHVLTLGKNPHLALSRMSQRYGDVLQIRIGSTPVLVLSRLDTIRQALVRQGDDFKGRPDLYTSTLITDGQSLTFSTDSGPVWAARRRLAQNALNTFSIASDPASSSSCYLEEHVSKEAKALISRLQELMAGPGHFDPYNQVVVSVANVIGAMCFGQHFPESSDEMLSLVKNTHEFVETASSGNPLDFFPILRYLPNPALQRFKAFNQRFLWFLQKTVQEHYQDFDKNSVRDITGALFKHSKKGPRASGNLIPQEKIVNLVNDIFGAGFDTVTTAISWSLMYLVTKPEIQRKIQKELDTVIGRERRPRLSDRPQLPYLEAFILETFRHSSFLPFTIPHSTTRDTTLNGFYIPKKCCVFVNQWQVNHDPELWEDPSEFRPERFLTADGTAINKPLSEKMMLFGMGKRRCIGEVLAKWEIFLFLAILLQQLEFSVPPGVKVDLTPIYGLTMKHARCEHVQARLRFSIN

[12] = molecular target: Cytochrome P450 2C19 (Homo sapiens, UniProt P33261); assay: Cytochrome panel assay with activity outcomes. Panel member name: p450-cyp2c19 Compounds with AC50 equal or less than 10 uM are considered active; format: functional; conditions: read-out: AC50
[13] = molecular target: Cytochrome P450 2C9 (Homo sapiens, UniProt P11712)
[14] = tested on: Streptococcus; assay: Group A Streptococcus viability loss, dose response, counter-screen for streptokinase expression inhibitor project, luminescence, BacTiterGlo (AID 1915); format: functional, organism-based;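 also: potency for reduction of bacterial viability or growth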
[15] = tested on: Streptococcus sp. 'group A'; assay: growth inhibition of control SK(-) GAS strain, dose response, counter-screen for streptokinase expression inhibitor project, luminescence, kanamycin, BacTiterGlo, confirmation (AID 1900); format: functional, organism-based
[16] = molecular target: Cytochrome P450 2D6 (Homo sapiens, UniProt P10635);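 also: CYP2D6 member of a cytochrome P450 panel assay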
[17] = HEp-2 cell cytotoxicity, dose response, cytotoxicity control for RSV inhibitor project, HTS (AID 2410); format: functional; conditions: human respiratory syncytial virus
[18] = inhibitors of SNCA 5'UTR-driven reporter translation, confirmation, H4 neuroglioma cells, luminescence (AID 1988); format: functional, cell-based
[19] = inhibitors of firefly luciferase expression or activity, dose response, H4 neuroglioma cells, luminescence (AID 1990); format: functional, cell-based
[20] = Luminescence Cell-Based Dose Response HTS to Identify Inhibitors of 5'UTR Stem-Loop Driven Prion Protein mRNA Translation in H4 Neuroglioblastoma Cells. [Related pubchem assays: 1827 (Project Summary), 1813 (Primary HTS)]; format: functional

Chain of Cytochrome P450 2D6 (P10635 whole entry): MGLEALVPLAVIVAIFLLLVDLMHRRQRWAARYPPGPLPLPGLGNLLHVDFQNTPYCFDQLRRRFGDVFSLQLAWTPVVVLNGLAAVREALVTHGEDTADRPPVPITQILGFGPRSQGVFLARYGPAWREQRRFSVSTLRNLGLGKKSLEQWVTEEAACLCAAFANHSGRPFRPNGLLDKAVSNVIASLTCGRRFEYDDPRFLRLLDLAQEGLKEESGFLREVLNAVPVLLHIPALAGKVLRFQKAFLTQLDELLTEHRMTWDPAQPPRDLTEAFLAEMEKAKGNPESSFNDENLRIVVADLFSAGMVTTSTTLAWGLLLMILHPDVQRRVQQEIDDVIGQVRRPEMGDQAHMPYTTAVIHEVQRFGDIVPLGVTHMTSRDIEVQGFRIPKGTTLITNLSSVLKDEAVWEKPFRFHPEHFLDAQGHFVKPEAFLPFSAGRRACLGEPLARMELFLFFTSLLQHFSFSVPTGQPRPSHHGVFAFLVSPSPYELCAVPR
Chain of Cytochrome P450 3A4 (P08684 whole entry): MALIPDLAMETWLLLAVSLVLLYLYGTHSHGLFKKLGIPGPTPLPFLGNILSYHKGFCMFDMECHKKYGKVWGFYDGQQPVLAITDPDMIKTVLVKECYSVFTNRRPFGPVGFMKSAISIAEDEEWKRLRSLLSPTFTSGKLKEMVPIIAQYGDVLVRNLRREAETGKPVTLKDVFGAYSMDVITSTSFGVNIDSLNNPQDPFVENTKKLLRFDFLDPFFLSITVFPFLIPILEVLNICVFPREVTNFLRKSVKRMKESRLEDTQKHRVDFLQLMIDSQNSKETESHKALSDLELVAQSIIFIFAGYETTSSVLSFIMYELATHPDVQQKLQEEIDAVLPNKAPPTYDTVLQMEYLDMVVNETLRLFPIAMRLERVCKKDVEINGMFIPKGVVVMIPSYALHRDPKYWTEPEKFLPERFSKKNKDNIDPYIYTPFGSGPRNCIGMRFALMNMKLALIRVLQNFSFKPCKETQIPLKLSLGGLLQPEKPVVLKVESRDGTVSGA
Chain of Cytochrome P450 2C9 (P11712 whole entry): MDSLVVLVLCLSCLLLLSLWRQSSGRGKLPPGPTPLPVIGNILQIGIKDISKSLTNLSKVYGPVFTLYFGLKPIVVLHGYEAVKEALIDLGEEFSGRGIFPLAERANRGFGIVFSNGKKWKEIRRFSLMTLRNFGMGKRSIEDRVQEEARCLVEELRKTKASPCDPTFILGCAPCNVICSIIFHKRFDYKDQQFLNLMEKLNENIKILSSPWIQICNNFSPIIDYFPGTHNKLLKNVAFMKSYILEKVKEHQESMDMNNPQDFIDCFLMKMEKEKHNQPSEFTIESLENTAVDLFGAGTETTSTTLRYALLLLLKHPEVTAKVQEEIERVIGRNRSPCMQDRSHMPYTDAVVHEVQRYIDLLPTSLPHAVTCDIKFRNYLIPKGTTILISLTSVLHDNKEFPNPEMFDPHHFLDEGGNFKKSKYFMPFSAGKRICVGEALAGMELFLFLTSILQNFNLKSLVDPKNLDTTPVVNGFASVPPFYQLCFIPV
Chain of Cytochrome P450 2C19 (P33261 whole entry): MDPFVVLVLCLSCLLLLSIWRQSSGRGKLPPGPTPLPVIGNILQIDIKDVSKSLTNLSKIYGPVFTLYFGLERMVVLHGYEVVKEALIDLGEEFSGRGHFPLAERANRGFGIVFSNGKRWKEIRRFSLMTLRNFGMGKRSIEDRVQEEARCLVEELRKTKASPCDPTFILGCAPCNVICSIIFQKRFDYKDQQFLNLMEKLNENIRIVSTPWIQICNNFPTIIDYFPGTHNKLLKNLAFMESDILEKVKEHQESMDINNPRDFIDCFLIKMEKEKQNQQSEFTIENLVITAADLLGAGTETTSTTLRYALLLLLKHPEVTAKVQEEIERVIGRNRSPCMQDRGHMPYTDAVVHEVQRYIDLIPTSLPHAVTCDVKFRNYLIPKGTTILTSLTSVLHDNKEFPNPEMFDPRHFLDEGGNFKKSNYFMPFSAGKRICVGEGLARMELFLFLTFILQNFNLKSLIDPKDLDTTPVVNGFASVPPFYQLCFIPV

In the case of `O=C(Nc1ccc(F)cc1)c1nc[nH]c1C(=O)Nc1ccc([N+](=O)[O-])cc1`, the EC50 [1] is reported as 11.2 µM (active) and the EC50 [2] is reported as 17.6 µM (active).

In the case of `Cc1ccc2[nH]c(SCC(=O)Nc3cc([N+](=O)[O-])ccc3F)nc2c1`, the EC50 [1] is reported as 20.6 µM (active) and the EC50 [2] is reported as 14 µM (active).

For `CSc1cccc(NC(=O)C(C)C)c1`, the IC50 [3] was > 47.1 µM (inactive) and the EC50 [4] was > 53 µM (inactive).

In the case of `O=c1c2c3c(sc2n(CCN2CCCCC2)c(=O)n1Cc1ccco1)CCCCC3`, the EC50 [5] is reported as > 30 µM (not active), the AC50 [6] is reported as 17.9 µM (active) and the EC50 [7] is reported as 2.76 µM (active).

In the case of `c1ccc(-n2nnnc2Oc2cccc3cccnc23)cc1`, the EC50 [1] is reported as 20.8 µM (active) and the EC50 [2] is reported as 22.6 µM (active).

With `CC(C)CC(=O)NCc1ccc2[nH]c3c(c2c1)CCCC3` the EC50 [8] was > 38 µM (not active) and the EC50 [9] was > 160 µM (inactive).

For `CCOc1ccc(-c2c(=O)n(OCc3ccccn3)c3ccccc3[n+]2[O-])cc1`, the AC50 [10] was 12.6 µM (inconclusive), the AC50 [11] was 12.6 µM (inconclusive) and the AC50 [12] was 15.8 µM (inconclusive). The AC50 [13] was 5.62 µM (inconclusive).

In the case of `CCCC(=O)NC(=S)NNC(=O)c1ccc([N+](=O)[O-])cc1`, the EC50 [8] is reported as 10.1 µM (active) and the EC50 [9] is reported as > 160 µM (inactive).

For `CCOc1ccc(C2C(C(=O)c3ccc4c(c3)OCCO4)=C(O)C(=O)N2CCCN2CCOCC2)cc1` (configuration not stated), the IC50 [3] was > 47.1 µM (inactive) and the EC50 [4] was > 53 µM (inactive).

In the case of `COc1ccc(C(=O)N/N=C(\Cc2ncc[nH]2)c2ccccc2)cc1`, the EC50 [5] is reported as 7.77 µM (active), the EC50 [8] is reported as > 38 µM (not active) and the EC50 [9] is reported as 7.31 µM (active). The EC50 [7] was 1.46 µM (active).

For `O=C(/C=C/c1ccco1)OCc1nnc(-c2ccc(Cl)cc2)o1`, the IC50 [3] was > 47.1 µM (inactive) and the EC50 [4] was > 53 µM (inactive).

In the case of `CC#CCCC(=O)N1C=Cc2ccccc2C1C#N` (configuration not stated), the IC50 [3] is reported as > 47.1 µM (inactive) and the EC50 [4] is reported as > 53 µM (inactive).

With `C/C(=C\c1ccccc1)CN1CCC(C(=O)N2CCCCC2)CC1` the IC50 [3] was > 47.1 µM (inactive) and the EC50 [4] was > 53 µM (inactive).

With `CCc1ccc(OCC(=O)NC(N=C(S)Nc2ccc(C)cc2C)C(Cl)(Cl)Cl)cc1` (configuration not stated) the EC50 [1] was 41.1 µM (active), the AC50 [6] was 7.48 µM (active) and the EC50 [14] was 8.13 µM (active). The EC50 [15] was 3.3 µM (active) and the EC50 [2] was 30.8 µM (active).

With `Cn1c(CC(=O)Nc2ccc(Cl)c(Cl)c2)nnc1SCC(=O)N1CCN(c2ccccc2)CC1` the AC50 [16] was 25.1 µM (inconclusive) and the AC50 [11] was 15.8 µM (inconclusive).

With `N#Cc1cnn2c(-c3cccc(C(F)(F)F)c3)ccnc12` the CC50 [17] was 47 µM (active).

In the case of `O=C(c1ccc(COc2c(F)c(F)cc(F)c2F)o1)N1CCN(c2ccc(Cl)cc2)CC1`, the EC50 [1] is reported as 11.7 µM (active) and the EC50 [2] is reported as 21.5 µM (active).

With `COc1ccc(CCNC(=O)c2c(N)n(CCN3CCOCC3)c3nc4ccccc4nc23)cc1OC` the EC50 [18] was > 120 µM (not active), the EC50 [19] was > 120 µM (not active) and the EC50 [20] was 13.3 µM (active). For the same compound, the EC50 [2] was 94.9 µM (active).

With `CN1CCN(C2=Nc3ccccc3Oc3ccc(Cl)cc32)CC1` [LOXAPINE SUCCINATE] the AC50 [16] was 10 µM (inconclusive) and 31.6 µM (inconclusive) and the AC50 [11] was 31.6 µM (inconclusive) and 3.16 µM (inconclusive).

With `COC(=O)c1ccc2c(=O)n(Cc3ccco3)c(SCC(=O)Nc3ccccc3Cl)nc2c1` the EC50 [1] was 44.3 µM (active) and the EC50 [2] was 37.5 µM (active).

In the case of `CCN(C(=O)CSc1cc(C)c2ccc(OC)cc2n1)C1CCS(=O)(=O)C1` (configuration not stated), the IC50 [3] is reported as > 47.1 µM (inactive) and the EC50 [4] is reported as > 53 µM (inactive).

For `O=C(NCc1nnc(SCC(=O)N2CCCc3ccccc32)n1-c1ccccc1)c1cccc2ccccc12`, the CC50 [17] was > 50 µM (active).
